In brackets after ≈: the same amount, converted by molar mass. Entries after “also recorded” stand apart in the source; their conditions may differ.
Columns and labels:
A. baumannii ATCC 19606 = test: MIC, microbroth dilution (EUCAST); format: cell-based, Acinetobacter baumannii; settings: Acinetobacter baumannii, ATCC19606, 18 h
Description: (§1) Reference bacterial strains were obtained from the American Type Culture Collection (ATCC). Vancomycin resistant Enterococcus faecium (VRE 734, wastewater isolate from the Venter Laboratory Collection) was isolated on Bile Esculin agar (Oxoid, Australia) containing 6 μg/mL vancomycin and identified using MALDI-TOF mass spectrometry (Bruker, Preston, Victoria, Australia, Australian Center for Antimicrobial Resistance Ecology). The Pseudomonas aeruginosa WT PAO1 and Escherichia coli with deletions of both acrA and acrB genes encoding drug efflux pumps were obtained from the Venter laboratory stock ([Welch et al., 2010]). The protocol for microbial growth was adopted from the European Committee on Antimicrobial Susceptibility Testing (EUCAST) ([European Committee for Antimicrobial Susceptibility Testing, 2016]).
(§2) Non-fastidious bacteria and clinical isolates were maintained in Mueller Hinton (MH) broth (Acumedia, United Kingdom) supplemented with 15% (v/v) glycerol (Chem-Supply, Australia), cultured on Mueller Hinton (MH) agar (Acumedia, United Kingdom) plated and incubated at 37°C. Fastidious bacteria were maintained in Brain Heart Infusion (BHI) broth (Acumedia, United Kingdom) supplemented with 15% (v/v) glycerol at −80°C. The fastidious bacteria were cultured on MH agar plates supplemented with 5% (v/v) lysed horse blood and 3% (v/v) fetal bovine serum and incubated at 30°C in the presence of 5% CO2. Drug susceptibility assays were carried out with the non-fastidious cultures grown in cation-adjusted Mueller Hinton (CaMH) broth (Becton Dickinson, France). Streptococcus pyogenes was grown in CaMH broth supplemented with 5% (v/v) lysed horse blood and 3% (v/v) fetal bovine serum whereas Enterococcus faecium was grown in BHI broth.
(§3) The minimum inhibitory concentrations (MICs) for all six compounds were determined using the microbroth dilution protocol as per EUCAST with an inoculum of approximately […] in an exponential growth phase ([European Committee for Antimicrobial Susceptibility Testing, 2016]). Bacterial suspension, 100 μL/well, was added to 100 μL/well of drug dilutions, then incubated for 18 h at 37°C. Fastidious bacterial suspensions were instead incubated at 30°C in the presence of 5% CO2. Bacterial growth was assessed by measuring the change in A600 nm between time 0 and 18 h (Cytation5® Cell Imaging Multi-Mode Reader, Bio-Tek®). Levofloxacin was used as the positive control. Assays were completed in duplicate in at least three independent experiments.

A. baumannii XDR UW 5075 = test: MIC, microbroth dilution (EUCAST); format: cell-based, Acinetobacter baumannii; settings: Acinetobacter baumannii, XDRUW5075, 18 h
Description: as §1, §2, §3

[1] = tested on: Enterobacter aerogenes ATCC 13408; test: Antibacterial activity (MIC), microbroth dilution; format: cell-based; settings: Klebsiella aerogenes, ATCC13408, read-out: Antibacterial activity (MIC)
Description: as §1, §2, §3

[2] = tested on: Escherichia coli ATCC 35218; test: Antibacterial activity (MIC), microbroth dilution; format: cell-based; settings: Escherichia coli, ATCC35218, read-out: Antibacterial activity (MIC)
Description: as §1, §2, §3

[3] = tested on: Escherichia coli WT BW 25113; test: Antibacterial activity (MIC), microbroth dilution; format: cell-based; settings: Escherichia coli, WTBW25113, read-out: Antibacterial activity (MIC)
Description: as §1, §2, §3

[4] = tested on: Klebsiella pneumoniae ATCC 13883; test: Antibacterial activity (MIC), microbroth dilution; format: cell-based; settings: Klebsiella pneumoniae, ATCC13883, read-out: Antibacterial activity (MIC)
Description: as §1, §2, §3

[5] = tested on: Klebsiella pneumoniae ATCC 33495; test: Antibacterial activity (MIC), microbroth dilution; format: cell-based; settings: Klebsiella pneumoniae, ATCC33495, read-out: Antibacterial activity (MIC)
Description: as §1, §2, §3

[6] = tested on: Klebsiella pneumoniae ATCC 4352; test: Antibacterial activity (MIC), microbroth dilution; format: cell-based; settings: Klebsiella pneumoniae, ATCC4352, read-out: Antibacterial activity (MIC)
Description: as §1, §2, §3

[7] = tested on: Methicillin resistant Staphylococcus aureus; test: Antibacterial activity (MIC), microbroth dilution; format: cell-based; settings: Staphylococcus aureus, ATCC 43300 / MRSA, read-out: Antibacterial activity (MIC)
Description: as §1, §2, §3

[8] = tested on: Pseudomonas aeruginosa ATCC 27853; test: Antibacterial activity (MIC), microbroth dilution; format: cell-based; settings: Pseudomonas aeruginosa, ATCC27853, read-out: Antibacterial activity (MIC)
Description: as §1, §2, §3

[9] = tested on: Pseudomonas aeruginosa WT PAO1; test: Antibacterial activity (MIC), microbroth dilution; format: cell-based; settings: Pseudomonas aeruginosa, PAO1, read-out: Antibacterial activity (MIC)
Description: as §1, §2, §3

[10] = tested on: Streptococcus pneumoniae (type 3, mucoid strain) ATCC 6303; test: Antibacterial activity (MIC), microbroth dilution; format: cell-based; settings: Streptococcus pneumoniae, ATCC6303, read-out: Antibacterial activity (MIC)
Description: as §1, §2, §3

[11] = tested on: Streptococcus pyogenes ATCC 10389; test: Antibacterial activity (MIC), microbroth dilution; format: cell-based; settings: Streptococcus pyogenes, ATCC10389, read-out: Antibacterial activity (MIC)
Description: as §1, §2, §3

[12] = tested on: HepG2 (ATCC HB-8065) cells; test: RealTime-Glo MT cell viability assay; format: cell-based; settings: 24 h
Description: The effects of the cinnamaldehyde analogs were analyzed for off-target effects on mammalian cells using the protocol as previously described ([Chai et al., 2020]) with the following modifications. In vitro cytotoxicity was assessed in HepG2 (ATCC HB-8065) cells using the RealTime-Glo™ MT Cell Viability Assay Kit (Promega) as described previously ([Wang et al., 2017]). The LXC compounds were tested at 1 × and 2 × MIC using a final DMSO concentration of 2% (v/v) in the assay. […] The luminescence signal was read at 5-min intervals over 24 h in a Cytation5® Cell Imaging Multi-Mode Reader (Bio-Tek®), at 37°C in the presence of 5% CO2.
FIGURE 8 The LXC compounds are generally non-toxic at a concentration of 1 × MIC. (A–F) Real-time liver cell viability measurements for HepG2 after treatment with 1 × (pink line) and 2 × (brown line) MIC values. […] Cell viability was measured every 5 min for 24 h at 37°C and 5% CO2 on a Cytation5® Cell Imaging Multi-Mode Reader using the RealTime-Glo™ MT Cell Viability Assay reagent. The results are presented in mean ± SEM (hourly SEM data was presented).

How did the MIC (A. baumannii ATCC 19606) turn out when COc1ccc(/C=C/C(=O)n2c(C)nc3ccccc32)cc1OC [Compound 5] was run?
The MIC was 256 µg/mL (≈ 794 µM).

What about the MIC (A. baumannii XDR UW 5075) of the same compound?
Its MIC is greater than 128 µg/mL.

And the MIC [1]?
The MIC was greater than 256 µg/mL.

And the MIC [2]?
Its MIC is greater than 256 µg/mL.

What about the MIC [3] of the same compound?
The MIC was greater than 256 µg/mL.

And the MIC [4]?
Its MIC is greater than 256 µg/mL.

And the MIC [5]?
Its MIC is greater than 256 µg/mL.

And the MIC [6]?
Its MIC is greater than 256 µg/mL.

And the MIC [7]?
The MIC was greater than 256 µg/mL.

And the MIC [8]?
Its MIC is greater than 256 µg/mL.

What about the MIC [9] of the same compound?
Its MIC is greater than 256 µg/mL.

And the MIC [10]?
The MIC was 256 µg/mL (≈ 794 µM).

What about the MIC [11] of the same compound?
Its MIC is greater than 256 µg/mL.

And the “Cytotoxicity, HepG2 cell viability” value ([12]; 1 × MIC)?
Its value is “displayed cytotoxicity”.

For Cc1nc2ccccc2n1C(=O)/C=C/c1ccc(Cl)cc1 [Compound 3], which MIC (A. baumannii ATCC 19606) is on record?
The MIC was 128 µg/mL (≈ 431 µM).

And the MIC (A. baumannii XDR UW 5075)?
Its MIC is greater than 128 µg/mL.

What about the MIC [1] of the same compound?
Its MIC is greater than 256 µg/mL.

What about the MIC [2] of the same compound?
Its MIC is greater than 256 µg/mL.

And the MIC [3]?
The MIC was greater than 256 µg/mL.

What about the MIC [4] of the same compound?
Its MIC is greater than 256 µg/mL.

What about the MIC [5] of the same compound?
The MIC was greater than 256 µg/mL.

What about the MIC [6] of the same compound?
The MIC was greater than 256 µg/mL.

What about the MIC [7] of the same compound?
The MIC was greater than 256 µg/mL.

And the MIC [8]?
The MIC was greater than 256 µg/mL.

And the MIC [9]?
Its MIC is greater than 256 µg/mL.

What about the MIC [10] of the same compound?
The MIC was 256 µg/mL (≈ 863 µM).

And the MIC [11]?
The MIC was greater than 256 µg/mL.

What about the “Cytotoxicity, HepG2 cell viability” value ([12]; 2 × MIC) of the same compound?
Its value is “cytotoxicity was also observed”.

What does the source list for Cc1nc2ccccc2n1C(=O)/C=C/c1ccc(Br)cc1 [Compound 4]?
MIC (A. baumannii ATCC 19606): 32 µg/mL (≈ 93.8 µM); MIC (A. baumannii XDR UW 5075): > 128 µg/mL; MIC [1]: > 256 µg/mL; MIC [2]: > 256 µg/mL; MIC [3]: > 256 µg/mL; MIC [4]: > 256 µg/mL; MIC [5]: > 256 µg/mL; MIC [6]: > 256 µg/mL; MIC [7]: > 256 µg/mL; MIC [8]: 256 µg/mL (≈ 750 µM); MIC [9]: > 256 µg/mL; MIC [10]: 256 µg/mL (≈ 750 µM); MIC [11]: > 256 µg/mL; Cytotoxicity, HepG2 cell viability ([12]; 2 × MIC): devoid of undesirable toxicity

How did the MIC (A. baumannii ATCC 19606) turn out when Cc1nc2ccccc2n1C(=O)/C=C/c1ccc(Cl)cc1Cl [Compound 6] was run?
The MIC was 64 µg/mL (≈ 193 µM).

And the MIC (A. baumannii XDR UW 5075)?
Its MIC is greater than 128 µg/mL.

And the MIC [1]?
The MIC was greater than 256 µg/mL.

What about the MIC [2] of the same compound?
The MIC was greater than 256 µg/mL.

And the MIC [3]?
Its MIC is greater than 256 µg/mL.

What about the MIC [4] of the same compound?
Its MIC is greater than 256 µg/mL.

And the MIC [5]?
Its MIC is greater than 256 µg/mL.

What about the MIC [6] of the same compound?
The MIC was greater than 256 µg/mL.

What about the MIC [7] of the same compound?
The MIC was 64 µg/mL (≈ 193 µM).

And the MIC [8]?
Its MIC is greater than 256 µg/mL.

What about the MIC [9] of the same compound?
Its MIC is 256 µg/mL (≈ 773 µM).

What about the MIC [10] of the same compound?
Its MIC is 256 µg/mL (≈ 773 µM).

And the MIC [11]?
Its MIC is greater than 256 µg/mL.

What about the “Cytotoxicity, HepG2 cell viability” value ([12]; 2 × MIC) of the same compound?
The value was “devoid of hemolytic activity and cytotoxicity against mammalian cells in vitro; also recorded: devoid of undesirable toxicity”.

For Cc1nc2ccccc2n1C(=O)/C=C/c1ccccc1 [Compound 1], which MIC (A. baumannii ATCC 19606) is on record?
The MIC was 128 µg/mL (≈ 488 µM).

What about the MIC (A. baumannii XDR UW 5075) of the same compound?
Its MIC is greater than 128 µg/mL.

And the MIC [1]?
The MIC was greater than 256 µg/mL.

What about the MIC [2] of the same compound?
The MIC was greater than 256 µg/mL.

And the MIC [3]?
Its MIC is greater than 256 µg/mL.

And the MIC [4]?
Its MIC is greater than 256 µg/mL.

What about the MIC [5] of the same compound?
Its MIC is greater than 256 µg/mL.

And the MIC [6]?
Its MIC is greater than 256 µg/mL.

And the MIC [7]?
The MIC was 256 µg/mL (≈ 976 µM).

And the MIC [8]?
Its MIC is greater than 256 µg/mL.

And the MIC [9]?
Its MIC is 256 µg/mL (≈ 976 µM).

And the MIC [10]?
The MIC was 256 µg/mL (≈ 976 µM).

What about the MIC [11] of the same compound?
The MIC was greater than 256 µg/mL.

And the “Cytotoxicity, HepG2 cell viability” value ([12]; 2 × MIC)?
Its value is “cytotoxicity was also observed”.

Which MIC (A. baumannii ATCC 19606) does the source give for Cc1nc2ccccc2n1C(=O)/C=C/c1ccc(F)cc1 [Compound 2] here?
Its MIC is 128 µg/mL (≈ 457 µM).

What about the MIC (A. baumannii XDR UW 5075) of the same compound?
Its MIC is greater than 128 µg/mL.

What about the MIC [1] of the same compound?
Its MIC is greater than 256 µg/mL.

And the MIC [2]?
The MIC was greater than 256 µg/mL.

What about the MIC [3] of the same compound?
Its MIC is greater than 256 µg/mL.

And the MIC [4]?
The MIC was greater than 256 µg/mL.

What about the MIC [5] of the same compound?
The MIC was greater than 256 µg/mL.

What about the MIC [6] of the same compound?
The MIC was greater than 256 µg/mL.

What about the MIC [7] of the same compound?
The MIC was greater than 256 µg/mL.

What about the MIC [8] of the same compound?
The MIC was greater than 256 µg/mL.

And the MIC [9]?
The MIC was 256 µg/mL (≈ 913 µM).

And the MIC [10]?
Its MIC is 256 µg/mL (≈ 913 µM).

And the MIC [11]?
Its MIC is greater than 256 µg/mL.

What about the “Cytotoxicity, HepG2 cell viability” value ([12]; 2 × MIC) of the same compound?
The value was “cytotoxicity was also observed”.

— article PMC9465178, “Cinnamaldehyde derivatives act as antimicrobial agents against Acinetobacter baumannii through the inhibition of cell division” (Frontiers in Microbiology, 2022)
